Measured values: ChEMBL document CHEMBL1126227, “The synthesis and reactivity of ,-acetylenic and allenic sulfoxides and sulfones of dehydroepiandrosterone and their reactions with 1-butanethiol and glucose-6-phosphate dehydrogenase” (Bioorg Med Chem Lett, 1992)

molecular target: Glucose-6-phosphate dehydrogenase (Bos taurus) (UniProt Q5EM56); experiment: Percent inhibition against bovine adrenal G6PDH (glucose-6-phosphate dehydrogenase) at a concentration of 10 e-5 M
Sequence (Q5EM56 as listed by the source): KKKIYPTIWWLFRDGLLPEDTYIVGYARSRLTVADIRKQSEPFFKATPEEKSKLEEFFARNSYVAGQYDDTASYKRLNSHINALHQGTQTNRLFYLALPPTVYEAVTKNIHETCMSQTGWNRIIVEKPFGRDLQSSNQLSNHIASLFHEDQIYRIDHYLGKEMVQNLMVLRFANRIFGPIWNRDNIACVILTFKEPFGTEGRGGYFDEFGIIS

Row | Structure (SMILES) | inhibition
1 | C=C=CS(=O)(=O)[C@H]1CC[C@@]2(C)C(=CCC3C2CC[C@]2(C)C(=O)CCC32)C1 (stereo not given in full) | 15%
2 | C=C=C[S+]([O-])[C@H]1CC[C@@]2(C)C(=CCC3C2CC[C@]2(C)C(=O)CCC32)C1 (stereo not given in full) | < 5%
3 | C#CC[S+]([O-])[C@H]1CC[C@@]2(C)C(=CCC3C2CC[C@]2(C)C(=O)CCC32)C1 (stereo not given in full) | < 5%
4 | C#CCS[C@H]1CC[C@@]2(C)C(=CCC3C2CC[C@]2(C)C(=O)CCC32)C1 (stereo not given in full) | 47%
5 | C#CCS(=O)(=O)[C@H]1CC[C@@]2(C)C(=CCC3C2CC[C@]2(C)C(=O)CCC32)C1 (stereo not given in full) | 20%
